Paper PMC9783571, “Component Characterization, In Vitro Activities and Molecular Mechanism of Cydonia oblonga Mill. against Diabetic” (Pharmaceuticals, 2022)
Values after ≈ are worked out from the molar mass of the structure shown.

target: T1, α-glucosidase; assay: p-NPG hydrolysis, absorbance […] nm; format: biochemical; conditions: p-NPG (50 μL of 3 mM), potassium phosphate pH 7.4, 37 °C, 1 h
T1 construct: gene MAL12; enzyme preparation

IC50 [mg/L] | Compound
250.8 (≈ 928 µM) | O=c1cc(-c2ccc(O)cc2)oc2cc(O)cc(O)c12 [Apigenin]
158.8 (≈ 502 µM) | COc1cc(-c2oc3cc(O)cc(O)c3c(=O)c2O)ccc1O [Isorhamnetin]
> 5000 | Oc1cc(O)c2c(c1)O[C@H](c1ccc(O)c(O)c1)[C@H](O)C2 [Epicatechin]
190.4 (≈ 665 µM) | O=c1cc(-c2ccc(O)c(O)c2)oc2cc(O)cc(O)c12 [Luteolin]
